Tested on: A. lwoffii
Test: Antibiotic susceptibility test (MICROSCAN or disc diffusion), control organism A. lwoffii
Assay type: cell-based
Details: total isolates 1

Compound | Antibiotic Susceptibility Test Results, A. lwoffii [%]
CCN1CCN(C(=O)N[C@@H](C(=O)N[C@@H]2C(=O)N3[C@@H]2SC(C)(C)[C@@H]3C(=O)O)c2ccccc2)C(=O)C1=O [Piperacillin] | 100
O=C(O)c1cn(C2CC2)c2cc(N3CCNCC3)c(F)cc2c1=O [Ciprofloxacin] | 100

Tested on: Leptospira
Test: Susceptibility testing of Leptospira isolated from a patient with symptoms of multiple sclerosis
Assay type: cell-based
Details: Leptospira culture from serum of multiple sclerosis patient
Method: This example describes the preparation of a pellet used for antimicrobial susceptibility testing of a culture sample. […] In order to form pellet, an aliquot of this culture sample is placed in a microcentrifuge tube along with 10% SDS solution, and centrifuged at 14,000 g to disrupt the spirochetes and maximize the number of available eptiopic sites. […] This inoculated alternative growth medium was then allowed to incubate in the closed micro centrifuge tube until a distinctive pellet was observed (typically 7-14 days).
MICROSCAN antibiotic susceptibility microtiter plates were then inoculated with (e.g., 110 μl of) inoculum and allowed to incubate at 35° C. for 16-20 hours. The microtiter plates were then scanned for growth and respective sensitivity reaction (both the control well and the growth well).

Compound | Antibiotic Susceptibility Results, SERUM
Amoxicillin/Clavulanate [Augmentin] | Resistant
CCN1CCN(C(=O)N[C@@H](C(=O)N[C@@H]2C(=O)N3[C@@H]2SC(C)(C)[C@@H]3C(=O)O)c2ccccc2)C(=O)C1=O [Piperacillin] | Resistant
O=C(O)c1cn(C2CC2)c2cc(N3CCNCC3)c(F)cc2c1=O [Ciprofloxacin] | Susceptible

Same assay, conditions: Leptospira culture from urine of multiple sclerosis patient

Compound | Antibiotic Susceptibility Results, URINE
Amoxicillin/Clavulanate [Augmentin] | Resistant
CCN1CCN(C(=O)N[C@@H](C(=O)N[C@@H]2C(=O)N3[C@@H]2SC(C)(C)[C@@H]3C(=O)O)c2ccccc2)C(=O)C1=O [Piperacillin] | Resistant
O=C(O)c1cn(C2CC2)c2cc(N3CCNCC3)c(F)cc2c1=O [Ciprofloxacin] | Susceptible

Tested on: Pseudomonas
Test: Antibiotic susceptibility test (MICROSCAN or disc diffusion), control organism Pseudomonas
Assay type: cell-based
Details: total isolates 1

Compound | Antibiotic Susceptibility Test Results, Pseudomonas [%]
CCN1CCN(C(=O)N[C@@H](C(=O)N[C@@H]2C(=O)N3[C@@H]2SC(C)(C)[C@@H]3C(=O)O)c2ccccc2)C(=O)C1=O [Piperacillin] | 100
O=C(O)c1cn(C2CC2)c2cc(N3CCNCC3)c(F)cc2c1=O [Ciprofloxacin] | 100

Tested on: Borrelia
Test: Antibiotic susceptibility test (MICROSCAN or disc diffusion) of patient samples positive for Borrelia
Assay type: cell-based
Details: total isolates 519
Source text: (§1) This example describes the preparation of a pellet used for antimicrobial susceptibility testing of a culture sample. The procedure begins with a culture (e.g., prepared in the manner described in Example 2), where serum from a patient is inoculated in GSI-1 media and allowed to grow. In order to form pellet, an aliquot of this culture sample is placed in a microcentrifuge tube along with 10% SDS solution, and centrifuged at 14,000 g to disrupt the spirochetes and maximize the number of available eptiopic sites. The disrupted spirochetes were then cultured in an alternative growth medium made up of one part GSI-1 medium, one part 6.5% lactalbumin hydrolysate, one part 2% brain heart infusion, one part 10% pluronic fluid, and one part of the isolated (disrupted) spirochetes. This inoculated alternative growth medium was then allowed to incubate in the closed micro centrifuge tube until a distinctive pellet was observed (typically 7-14 days).
(§2) Following the observation of pellet formation, the tube was vortexed and incubated at 35° C. until a MacFarlane standard of between 8 to 12% turbidity was achieved. MICROSCAN antibiotic susceptibility microtiter plates were then inoculated with (e.g., 110 μl of) inoculum and allowed to incubate at 35° C. for 16-20 hours. The microtiter plates were then scanned for growth and respective sensitivity reaction (both the control well and the growth well). Table 2 below lists the various antimicrobials tested with this sample and whether growth of the organism was inhibited (susceptible) or whether the growth of the organism was not inhibited (resistant).
(§3) This Example describes the results for susceptibility tests that were performed on a large number of patient samples positive for either Borrelia or Leptospira. […] The results presented in Table 3 reveal the varied response of different types of spirochetes to different antibiotics.

Compound | Antibiotic Susceptibility Test Results, Borrelia [%]
Amoxicillin/Clavulanate [Augmentin] | 90
CCN1CCN(C(=O)N[C@@H](C(=O)N[C@@H]2C(=O)N3[C@@H]2SC(C)(C)[C@@H]3C(=O)O)c2ccccc2)C(=O)C1=O [Piperacillin] | 60
O=C(O)c1cn(C2CC2)c2cc(N3CCNCC3)c(F)cc2c1=O [Ciprofloxacin] | 84

Tested on: E. coli
Test: Antibiotic susceptibility test (MICROSCAN or disc diffusion), control organism E. coli
Assay type: cell-based
Details: total isolates 1

Compound | Antibiotic Susceptibility Test Results, E. coli [%]
Amoxicillin/Clavulanate [Augmentin] | 100
CCN1CCN(C(=O)N[C@@H](C(=O)N[C@@H]2C(=O)N3[C@@H]2SC(C)(C)[C@@H]3C(=O)O)c2ccccc2)C(=O)C1=O [Piperacillin] | 100
O=C(O)c1cn(C2CC2)c2cc(N3CCNCC3)c(F)cc2c1=O [Ciprofloxacin] | 100

Tested on: Leptospira
Test: Antibiotic susceptibility test (MICROSCAN or disc diffusion) of patient samples positive for Leptospira
Assay type: cell-based
Details: total isolates 276
Source text: as §1, §2, §3

Compound | Antibiotic Susceptibility Test Results, Leptospira [%]
Amoxicillin/Clavulanate [Augmentin] | 89
CCN1CCN(C(=O)N[C@@H](C(=O)N[C@@H]2C(=O)N3[C@@H]2SC(C)(C)[C@@H]3C(=O)O)c2ccccc2)C(=O)C1=O [Piperacillin] | 55
O=C(O)c1cn(C2CC2)c2cc(N3CCNCC3)c(F)cc2c1=O [Ciprofloxacin] | 78

Tested on: Borrelia burgdorferi infection in a human patient
Test: Treatment of a human patient with Borrelia burgdorferi infection
Assay type: in vivo
Details: human patient with neurological distress, Borrelia burgdorferi positive

Compound | patient response to treatment
CO/N=C(\C(=O)N[C@@H]1C(=O)N2C(C(=O)O)=C(CSc3nc(=O)c(=O)[nH]n3C)CS[C@H]12)c1csc(N)n1 [ceftriaxone] | responded well until the medication was stopped

Tested on: Treponema isolate
Test: Antimicrobial susceptibility test (MICROSCAN plates) of a patient's Treponema isolate
Assay type: cell-based
Details: Treponema infected patient's isolate; MICROSCAN plates, 35° C., 16-20 hours
Method: For susceptibility testing, the organisms harvested could be assayed using any suitable susceptibility assay (See, Example 7). In some embodiments of the present invention, MICROSCAN antibiotic susceptibility plates were inoculated and incubated. Following incubations, plates were scanned for growth and respective sensitivity reaction. […] For the results to be considered reliable, the no growth of organisms was accepted in the negative control well, while the positive control well had to have sufficient growth to be read. In some embodiments of the present invention, to confirm the presence or absence of growing spirochetes in the growth well, aliquots from the growth well were reinoculated with fresh growth media and after an incubation time (e.g., 7-10 days) the presence of the organisms was confirmed (e.g., by phase contrast microscopy or direct fluorescent antibody staining).
as §1
This example describes an antimicrobial susceptibility test performed for a human patient. The patient had previously been testing using GSI-1 medium (e.g., as described in Example 2) for the presence of any spirochetes. […] This culture sample was then transferred to a microcentrifuge tube, and a pellet for antimicrobial susceptibility testing was prepared as described in Example 6.
as §2

Compound | RESULT (antibiotic susceptibility)
Amoxicillin/Clavulanate [Augmentin] | Resistant
CCN1CCN(C(=O)N[C@@H](C(=O)N[C@@H]2C(=O)N3[C@@H]2SC(C)(C)[C@@H]3C(=O)O)c2ccccc2)C(=O)C1=O [Piperacillin] | Susceptible
O=C(O)c1cn(C2CC2)c2cc(N3CCNCC3)c(F)cc2c1=O [Ciprofloxacin] | Resistant

Same assay, conditions: text restating Example 7

Compound | susceptibility profile from a specific human patient
Amoxicillin/Clavulanate [Augmentin] | resistance

Tested on: Y. entero gp.
Test: Antibiotic susceptibility test (MICROSCAN or disc diffusion), control organism Y. entero gp.
Assay type: cell-based
Details: total isolates 1

Compound | Antibiotic Susceptibility Test Results, Y. entero gp. [%]
Amoxicillin/Clavulanate [Augmentin] | 100
CCN1CCN(C(=O)N[C@@H](C(=O)N[C@@H]2C(=O)N3[C@@H]2SC(C)(C)[C@@H]3C(=O)O)c2ccccc2)C(=O)C1=O [Piperacillin] | 100
O=C(O)c1cn(C2CC2)c2cc(N3CCNCC3)c(F)cc2c1=O [Ciprofloxacin] | 100

Tested on: Tatumella
Test: Antibiotic susceptibility test (MICROSCAN or disc diffusion), control organism Tatumella
Assay type: cell-based
Details: total isolates 2
Source text: as §1, §2, §3

Compound | Antibiotic Susceptibility Test Results, Tatumella [%]
Amoxicillin/Clavulanate [Augmentin] | 100
CCN1CCN(C(=O)N[C@@H](C(=O)N[C@@H]2C(=O)N3[C@@H]2SC(C)(C)[C@@H]3C(=O)O)c2ccccc2)C(=O)C1=O [Piperacillin] | 100
O=C(O)c1cn(C2CC2)c2cc(N3CCNCC3)c(F)cc2c1=O [Ciprofloxacin] | 100

Tested on: Borrelia and Leptospira
Test: Susceptibility of several hundred patient samples having Borrelia and Leptospira infections (population effectiveness)
Assay type: cell-based
Details: not given

Compound | effectiveness in the population
Amoxicillin/Clavulanate [Augmentin] | over 80%

Tested on: Leptospira
Test: Susceptibility testing of Leptospira isolated from a patient with symptoms of rheumatoid arthritis
Assay type: cell-based
Details: Leptospira culture from serum of rheumatoid arthritis patient
Source text: as §1
Following the observation of pellet formation, the tube was vortexed and incubated at 35° C. until a MacFarlane standard of between 8 to 12% turbidity was achieved. MICROSCAN antibiotic susceptibility microtiter plates were then inoculated with (e.g., 110 μl of) inoculum and allowed to incubate at 35° C. for 16-20 hours. The microtiter plates were then scanned for growth and respective sensitivity reaction (both the control well and the growth well).
This Example describes the diagnosis and treatment of a human patient with symptoms of rheumatoid arthritis. In particular, serum and urine samples from this patient were initially cultured on GSI-1 (e.g., as described in Example 2), and screened for the presence of spirochetes (e.g., as described in Example 3). […] These cultures were then used to produce pellets for antimicrobial susceptibility testing (e.g., as described in Example 6). The antimicrobial susceptibility tests were then carried out on each sample (e.g., as described in Example 7) with the antimicrobials listed below in Table 5.

Compound | Antibiotic Susceptibility Results, SERUM
Amoxicillin/Clavulanate [Augmentin] | Susceptible
CCN1CCN(C(=O)N[C@@H](C(=O)N[C@@H]2C(=O)N3[C@@H]2SC(C)(C)[C@@H]3C(=O)O)c2ccccc2)C(=O)C1=O [Piperacillin] | Resistant
O=C(O)c1cn(C2CC2)c2cc(N3CCNCC3)c(F)cc2c1=O [Ciprofloxacin] | Susceptible

Same assay, conditions: Leptospira culture from urine of rheumatoid arthritis patient

Compound | Antibiotic Susceptibility Results, URINE
Amoxicillin/Clavulanate [Augmentin] | Susceptible
CCN1CCN(C(=O)N[C@@H](C(=O)N[C@@H]2C(=O)N3[C@@H]2SC(C)(C)[C@@H]3C(=O)O)c2ccccc2)C(=O)C1=O [Piperacillin] | Resistant
O=C(O)c1cn(C2CC2)c2cc(N3CCNCC3)c(F)cc2c1=O [Ciprofloxacin] | Susceptible

Reference: US8617872B2, “Compositions for culturing spirochetes” (priority 2000, dated 2013)
